pIC50, pKd: −log10 of the molar value. “Also recorded” adds a separate entry of the source.
Assays:
HO15.19 cells = assay: Cell viability counter-screen (CellTiter-Glo), Myc-negative HO15.19; format: cell-based
Procedure, shortened: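 IMR32 cells (10,000/well) and HO15.19 cells (2000/well), both in EMEM with 10% FBS, were seeded 24 h before 72 h exposure to serial compound dilutions starting at 25 μM. Viability was read by CellTiter-Glo luminescence to give IC50. Single-point testing used 10 µM.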

NCI-H660 cells = assay: Cell viability (CellTiter-Glo), NCI-H660; format: cell-based
Description: Viability of N-Myc positive (IMR32and NCI-H660) and negative (HO15.19) cells were determined using the CellTiter-Glo Luminescent Cell Viability Assay (Promega cat. G7570) (Madison, WI, USA). Cells were seeded into a 96-well white plate with a clear bottom: 10,000 cells per well for the IMR32 cells cultured in EMEM supplemented with 10% FBS, 2000 HO15.19 cells per well in Eagle’s minimum essential medium (EMEM) supplemented with 10% FBS, and 2000 cells per well for the NCI-H660 neuroendocrine cells cultured in RPMI supplemented 5% FBS, 1% Insulin-Transferrin-Selenium (Thermo Fisher, 41400-045), 10nM b-estradiol (Sigma, E8875), 10nM hydrocortisone (Sigma H0888) and 1% matrigel. Following 24 h incubation, the cells were treated with serial dilutions of the derivatives along with the respective parental compound starting at 25 μM for 72 h. Cell Titer Glo was added to each well at a ratio of 1:1 and incubated on a shaker at RT for 2 min. Luminescence and IC50 was measured with the TECAN InfiniteM200 plate reader (Männedorf, Switzerland).

N-Myc-Max complex = biological target: T1, N-Myc-Max complex (Homo sapiens, UniProt P04198+P61244); assay: Microscale thermophoresis (MST) binding; details: for binding to N-Myc-Max complex (in words): MST
T1 construct: N-Myc (amino acids 309–394) and Max (amino acids 12–93); 6xHis (N); made in house; host or cells: E. coli BL21
T1 sequence (P04198 379-464 limits assumed): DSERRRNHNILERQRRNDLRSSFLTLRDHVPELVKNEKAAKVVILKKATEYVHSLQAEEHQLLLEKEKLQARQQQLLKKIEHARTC
T1 sequence (P61244 12-93 isoform P61244-2 limits assumed): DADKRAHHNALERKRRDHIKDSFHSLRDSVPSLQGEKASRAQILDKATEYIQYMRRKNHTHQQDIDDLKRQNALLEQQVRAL
Excerpt: We first performed a microscale thermophoresis (MST) assay to validate the direct binding of VPC-70619 to the recombinant N-Myc-Max complex and to calculate the binding affinity. We evaluated the effect of increasing concentrations of 70619 on the movement of a fluorescent labelled N-Myc-Max complex through a temperature gradient induced by an infrared laser.
(§1) The bHLHLZ domain of N-Myc (amino acids 309–394) and Max (amino acids 12–93) protein sequences were cloned into pETDuet with an N-terminal 6×His. pETDuet-His-NMyc-Max was transformed and expressed in E. coli BL21 and induced with 0.5 mM isopropyl-β-D-thiogalactopyranoside (IPTG) at 16 °C overnight. The cultures were lysed by sonication and combined for purification by immobilized metal ion chromatography (IMAC) with nickel-nitrilotriacetic acid (Ni-NTA) resin. The bound proteins were eluted from the column with 20 mM Tris, pH = 8, 500 mM NaCl, 5% glycerol, 300 mM imidazole, 5 mM βMe, and 0.1 mM PMSF. Size exclusion chromatography with Superdex 75 was used to increase the purity of the N-Myc-Max protein sample. The purified protein complex was used in subsequent BLI and MST experiments.
An MST assay was conducted to determine the binding affinity of 70619 to the purified N-Myc-Max protein complex. N-Myc-Max protein samples were labeled with the red fluorescent dye NT647 using the Monolith NT Protein labeling kit RED-NHS amine-reactive (NanoTemper Technologies, München, Germany); 70619 was serial diluted with 100% DMSO and mixed with the labeled fluorescent N-Myc-Max (final concentration of protein: 5 nM) in the assay reaction buffer (20 mM Tris, pH = 8, 100 mM NaCl, 0.2 mM TCEP, 0.1 mM PMSF, 5% glycerol) starting at 600 μM, with a final concentration of DMSO of 5%. The protein/inhibitor solution was mixed and incubated at room temperature in the dark for 5 min before being filled into the capillaries. […] Analysis of the data for Kd estimation was calculated with the MO Affinity Analysis software from Nanotemper (München, Germany).

[1] = Microsomal stability assay; format: in vitro ADME, Mouse
Description: A microsomal stability assay was performed using the Corning Gentest NADPH Regenerating System (Corning, #451220/41200) (Corning, NY, USA). Mouse liver microsomes (MLM) (Xenotech, M1000) (Kansas City, KS, USA) and compounds were diluted to a final concentration of 0.15 mg/mL and 1 μM respectively. These were prepared into a 500 μL solution with 100 mM potassium phosphate buffer (pH = 7.4). Imipramine was used as a control. NADPH solutions A and B were mixed in a 5:1 ratio, and 24 μL of the NADPH was added to each of the MLM/compound samples at 30 s intervals. At time points 10, 20, and 45 min, 100 μL of reaction was added to the stopping solution. Samples were centrifuged at 18,000× g and incubated at 4 °C for 10 min. Samples were then loaded onto a LC-MS 96-well plate for analysis.

[2] = system: N-Myc-Max binding to DNA E-box; assay: Biolayer interferometry (BLI), N-Myc-Max binding to biotinylated E-box DNA; format: biochemical; details: BLI, 0, 50, 100, 200 µM
Excerpt: To confirm that 70619 could disrupt the binding of N-Myc-Max DBD to DNA, we performed a bio-layer interferometry (BLI) assay where we immobilized biotinylated E-box sequence on streptavidin sensors, and we evaluated recombinant N-Myc-Max binding to the DNA in the presence of increasing concentrations of VPC-70619. […] We observed a similar number of interactions when comparing the ratio of signal per nuclei in the presence or absence of the compound.
as §1
Biotinylated-duplex DNA (Forward: 5′ Biotin-[…], Reverse: […]) was bound to the super-streptavidin (SSA) ForteBio Sensor in the assay buffer [20 mM Tris pH = 8, 150 mM NaCl, 5% glycerol, and 0.2 mM TCEP]. The protein solution was mixed with the serially diluted compound (70619) to a final concentration of 0.1 mg/mL of protein and 200 μM, 100 μM, and 50 μM for the compound. Sample containing N-Myc-Max protein alone was used as a control.

## N#Cc1ccc(NNC(=O)c2ccc(C#N)c(Cl)c2)c(C(F)(F)F)c1 [compound 70619]
HO15.19 cells; 10 µM, Myc-negative specificity control
  % Inhibition in HO15.19 (10 µM): 14.1%
HO15.19 cells; Rattus norvegicus, HO15.19, 10 µM, Myc-negative specificity control
  inhibition at 10 µM: 14%
HO15.19 cells; counter-screen
  cytotoxicity in Myc-negative HO15.19 (in words): did not report any strong inhibitory effects; also recorded: minimal cytotoxicity
NCI-H660 cells; NCI-H660, 72 h, read-out: IC50 cell proliferation in NCI-H660
  pIC50: 5.15
NCI-H660 cells; NEPC in vitro model
  inhibition of NCI-H660 (in words): good inhibition
N-Myc-Max complex
  binding to N-Myc-Max complex (in words): bind weakly
N-Myc-Max complex; listed as VPC-70619
  binding to N-Myc-Max complex (in words): somewhat weak affinity
N-Myc-Max complex; estimate, limited solubility in assay buffer, read-out: dissociation constant
  pKd: < 3.89
[1]; half-life 2310 min vs 140 min
  increase in microsomal stability compared to VPC-70551: 15 fold
[1]; mouse, mouse liver microsomes, pH 7.4, mouse liver microsomes, 1 µM compound, read-out: microsomal half-life (T1/2)
  half-life at 1 μM: 38.5 h
[2]
  disruption of DNA binding to (N-)Myc-Max (in words): disrupt DNA binding at 100 µM
[2]; listed as VPC-70619
  disruption of DNA binding to (N-)Myc-Max (in words): effective at blocking N-Myc-Max binding to DNA in a dose-dependent manner
